According to article PMC3747139 (PLoS ONE, 2013):
Like-named read-outs stand apart in the source and are kept apart here. Marks after values point to notes of the source that are not given here.

Columns and labels:
[1] = test system: MCF-7; assay: Cell count assay (trypan blue); assay type: cell-based, human;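 for Number of viable cells after 48 h of ligand treatment: each ligand tested at its own IC50 concentration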
Protocol: (§1) Normal and tumor cell lines were seeded at 20000–40000 cells/cm^2 with 0.2 mL/cm^2 media and incubated for 48 h at 37°C, 6% CO2, 95% relative humidity. […] After 24 h and 48 h of incubation, cells were washed with 300 µl PBS or 0.02% EDTA, trypsinized, followed by harvesting at 37°C. 200 µl cell suspension was transferred into 1.5 ml microcentrifuge tube. To the cell suspension, 300 µl PBS followed by 500 µl of 0.4% trypan blue solution was added. To get the homogenised solution, the microcentrifuge tube was gently tapped for 5 min, 20 µl of cell suspension was loaded in to a chamber of the haemocytometer.

[2] = test system: B16F10; assay: Cell count assay (trypan blue); assay type: cell-based, human
Protocol: as §1

[3] = test system: A549; assay: Cell count assay (trypan blue); assay type: cell-based, human;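 for Number of viable cells after 24 h of ligand treatment: each ligand tested at its own IC50 concentration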
Protocol: as §1

[4] = test system: HQF DNA [d(T2AG3)4]; assay: SYBR Green melting study with HQF DNA; assay type: binding, human; conditions: melting temperature of HQF DNA (5 µM) in presence of 1 µM ligand
Protocol: When quadruplex DNA melts to form ssDNA structure, SG fluorescence intensity gradually reduces as SG has no binding to ssDNA. Each time, 5 µM of HQF DNA [d(T2AG3)4)], 5 µM of dsDNA (prepared by mixing equal concentration of poly-dA-dT and poly-dT-dA), 5 µM ssDNA ( poly dT alone) and 1 µM of each ligand was incubated at 4°C for 16 h, and used for melting studies. […] Affinity, stoichiometry and thermodynamic parameters for quadruplex-ligand complex were studied with 60 µM of ligand and 10 µM of HQF DNA using Microcal VP-ITC (Northampton, MA, USA). Ligand addition to G-quadruplex DNA was made every 180 seconds. Titration experiments were performed thrice and blank correction was made each time to minimize error.

[5] = Cell count assay (trypan blue); assay type: cell-based; design: concentration or dose not given beside the values; conditions: human; for viability at 24 h: read-out: Number of viable cells after 24 h of ligand treatment; for viability at 48 h: read-out: Number of viable cells after 48 h of ligand treatment
Protocol: as §1

With `COc1ccc(-c2c(-c3ccccc3)nnn2CC2CCCCO2)cc1` (stereo not shown) [Ligand L14, 5-(4-Methoxyphenyl)-4-phenyl-1-((tetrahydro-2H-pyran-2-yl)methyl)-1H-1,2,3-triazole] the “Number of viable cells after 24 h of ligand treatment” value ([1]; MCF-7, 24 h) was “+ (Viable cells in the range of 80%–90%)”, the “Number of viable cells after 48 h of ligand treatment” value ([1]; MCF-7, 48 h) was “++ (Viable cells in the range of 50%–60%)” and the “Number of viable cells after 24 h of ligand treatment” value ([2]; B16F10, 24 h) was “+ (Viable cells in the range of 80%–90%)”. For the same compound, the “Number of viable cells after 48 h of ligand treatment” value ([2]; B16F10, 48 h) was “++ (Viable cells in the range of 50%–60%)”, the “Number of viable cells after 24 h of ligand treatment” value ([3]; A549, 24 h) was “+ (Viable cells in the range of 80%–90%)” and the “Number of viable cells after 48 h of ligand treatment” value ([3]; A549, 48 h) was “++ (Viable cells in the range of 50%–60%)”. For the same compound, the Tm [4] was 27 ^o C, the viability at 24 h ([5]; CRL-2115 cells (normal cell line), CRL-2115, 24 h) was 80 to 90% and the viability at 48 h ([5]; CRL-2115 cells (normal cell line), CRL-2115, 48 h) was 80 to 90%. It also gave a viability at 24 h ([5]; CRL-2120 cells (normal cell line), CRL-2120, 24 h) of 80 to 90%, a viability at 48 h ([5]; CRL-2120 cells (normal cell line), CRL-2120, 48 h) of 80 to 90% and a viability at 24 h ([5]; NCM-460 cells (normal cell line), NCM-460, 24 h) of 80 to 90%. For the same compound, the viability at 48 h ([5]; NCM-460 cells (normal cell line), NCM-460, 48 h) was 50 to 60%.
